Results from patent publication US20250368666A1, “INDAZOLE COMPOUNDS” (TYRA BIOSCIENCES, INC., priority 2022, published 2025).

Tests used:
[1] = system: HuH7 cell line (FGF19 amplification); assay: Cancer cell line cell viability assay (Cell Titer-Glo), 120 hr; assay type: cell-based; conditions: Homo sapiens, Huh-7
Method in brief: (§1)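 Luminescent ATP read-out (Cell Titer-Glo 2.0) after compound exposure, normalised to DMSO-only wells. Dosing: 9 concentrations, 4-fold steps, top 3 μM, triplicates. IC50 derived by log(inhibitor) vs. response 4-parameter fit.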

[2] = system: KG-1 cell line (FGFR 1-fusion); assay: Cancer cell line cell viability assay (Cell Titer-Glo), 72 hr; assay type: cell-based; conditions: Homo sapiens, KG-1, KG-1 cell line (FGFR1-fusion)
Method in brief: as §1

[3] = system: RT112/84 cell line (FGFR3-fusion); assay: as above; assay type: cell-based; conditions: Homo sapiens, RT112/84, RT112/84 cell line (FGFR3-fusion)
Method in brief: as §1

[4] = system: KATO-III cell line (FGFR2 amplification); assay: as above; assay type: cell-based; conditions: Homo sapiens, KATO III
Method in brief: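 Intracellular ATP was measured by Cell Titer-Glo 2.0 luminescence after cells were incubated with compound dilutions (top 3 μM, 4-fold, 9 doses). Values were expressed relative to DMSO-treated cells and IC50 was calculated from a variable-slope dose-response curve.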

[5] = biological target: T1, FGFR1 (Homo sapiens, UniProt P11362); assay: Kinase binding assay (kinase-tagged T7 phage, affinity beads, qPCR), Kd; conditions: read-out: FGFR1 (Kd nM)
T1 construct: made in house; host or cells: E. coli (BL21-derived), T7 phage
T1 sequence (P11362 22-822): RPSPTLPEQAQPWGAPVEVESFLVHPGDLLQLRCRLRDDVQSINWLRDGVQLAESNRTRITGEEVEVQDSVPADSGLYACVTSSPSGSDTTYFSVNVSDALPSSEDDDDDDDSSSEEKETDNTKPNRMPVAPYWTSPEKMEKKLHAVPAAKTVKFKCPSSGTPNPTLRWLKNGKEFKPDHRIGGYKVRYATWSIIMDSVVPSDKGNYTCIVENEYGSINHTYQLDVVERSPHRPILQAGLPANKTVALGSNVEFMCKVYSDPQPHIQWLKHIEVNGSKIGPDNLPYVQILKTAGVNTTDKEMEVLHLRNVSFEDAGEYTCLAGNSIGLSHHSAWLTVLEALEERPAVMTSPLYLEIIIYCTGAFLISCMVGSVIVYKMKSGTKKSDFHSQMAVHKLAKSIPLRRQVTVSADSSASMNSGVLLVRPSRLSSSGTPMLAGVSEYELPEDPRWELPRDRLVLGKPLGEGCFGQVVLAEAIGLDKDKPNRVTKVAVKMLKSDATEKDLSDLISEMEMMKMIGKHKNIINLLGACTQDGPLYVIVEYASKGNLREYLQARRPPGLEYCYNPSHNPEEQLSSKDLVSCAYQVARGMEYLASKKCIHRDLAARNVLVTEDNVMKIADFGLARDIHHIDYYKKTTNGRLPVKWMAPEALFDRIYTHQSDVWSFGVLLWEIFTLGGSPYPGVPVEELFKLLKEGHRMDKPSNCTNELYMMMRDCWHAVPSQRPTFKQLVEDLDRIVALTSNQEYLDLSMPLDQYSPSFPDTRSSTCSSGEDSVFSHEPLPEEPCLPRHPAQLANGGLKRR
Method in brief: (§2)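 Competition binding of compounds against kinase-tagged T7 phage captured on immobilised biotinylated ligand beads; bead-bound kinase quantified by qPCR of eluates. 11-point 3-fold dilution, 0.9% DMSO final; Kd from Hill fit with slope fixed at −1.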

[6] = biological target: T2, FGFR4 (Homo sapiens, UniProt P22455); assay: as above; conditions: read-out: FGFR4 (Kd nM)
T2 construct: made in house; host or cells: E. coli (BL21-derived), T7 phage
T2 sequence (P22455 22-802): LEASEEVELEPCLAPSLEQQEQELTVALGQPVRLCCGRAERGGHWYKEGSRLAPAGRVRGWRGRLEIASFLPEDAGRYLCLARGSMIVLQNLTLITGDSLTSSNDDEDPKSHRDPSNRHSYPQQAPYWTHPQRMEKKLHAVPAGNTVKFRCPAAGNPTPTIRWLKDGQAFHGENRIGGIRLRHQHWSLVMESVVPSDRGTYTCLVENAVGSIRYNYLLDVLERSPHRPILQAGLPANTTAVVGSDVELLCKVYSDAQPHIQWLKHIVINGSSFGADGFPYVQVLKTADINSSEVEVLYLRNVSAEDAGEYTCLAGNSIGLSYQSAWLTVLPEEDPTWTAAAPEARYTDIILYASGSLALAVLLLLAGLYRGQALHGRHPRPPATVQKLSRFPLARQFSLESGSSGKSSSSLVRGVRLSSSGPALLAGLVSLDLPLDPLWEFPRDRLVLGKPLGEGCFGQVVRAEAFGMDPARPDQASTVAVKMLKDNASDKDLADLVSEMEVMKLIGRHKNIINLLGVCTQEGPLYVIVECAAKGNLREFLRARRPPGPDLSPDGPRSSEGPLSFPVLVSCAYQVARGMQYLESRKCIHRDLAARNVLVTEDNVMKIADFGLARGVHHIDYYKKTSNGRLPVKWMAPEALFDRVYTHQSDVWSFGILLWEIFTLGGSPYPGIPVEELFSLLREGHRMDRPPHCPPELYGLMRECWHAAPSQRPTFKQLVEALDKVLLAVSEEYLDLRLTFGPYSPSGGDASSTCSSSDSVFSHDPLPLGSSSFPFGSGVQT
Method in brief: as §2

[7] = biological target: T3, FGFR3 (Homo sapiens, UniProt P22607); assay: as above; conditions: read-out: FGFR3 (Kd nM)
T3 construct: made in house; host or cells: E. coli (BL21-derived), T7 phage
T3 sequence (P22607 23-806): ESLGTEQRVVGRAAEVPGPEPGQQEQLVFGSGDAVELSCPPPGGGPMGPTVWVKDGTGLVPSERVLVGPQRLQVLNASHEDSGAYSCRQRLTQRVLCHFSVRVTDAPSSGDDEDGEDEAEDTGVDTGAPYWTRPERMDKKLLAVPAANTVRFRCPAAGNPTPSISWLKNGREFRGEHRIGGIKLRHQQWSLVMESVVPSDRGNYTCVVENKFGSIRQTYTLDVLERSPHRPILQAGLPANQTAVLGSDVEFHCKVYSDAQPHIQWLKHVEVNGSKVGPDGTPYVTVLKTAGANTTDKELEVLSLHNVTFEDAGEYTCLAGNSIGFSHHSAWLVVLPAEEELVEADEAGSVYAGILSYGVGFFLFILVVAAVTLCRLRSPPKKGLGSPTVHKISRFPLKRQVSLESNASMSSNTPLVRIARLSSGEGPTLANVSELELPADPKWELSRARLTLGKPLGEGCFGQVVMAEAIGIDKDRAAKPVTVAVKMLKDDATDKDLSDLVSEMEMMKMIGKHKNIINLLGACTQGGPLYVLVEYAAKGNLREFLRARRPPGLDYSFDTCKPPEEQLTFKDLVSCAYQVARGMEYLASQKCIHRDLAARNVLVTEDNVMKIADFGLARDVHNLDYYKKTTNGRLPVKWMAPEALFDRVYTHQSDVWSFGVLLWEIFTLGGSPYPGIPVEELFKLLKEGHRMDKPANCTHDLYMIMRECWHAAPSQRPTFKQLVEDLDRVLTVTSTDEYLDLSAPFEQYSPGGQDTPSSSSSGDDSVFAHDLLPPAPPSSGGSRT
Method in brief: as §2

[8] = biological target: T4, FGFR2 (Homo sapiens, UniProt P21802); assay: as above; conditions: read-out: FGFR2 (Kd nM)
T4 construct: made in house; host or cells: E. coli (BL21-derived), T7 phage
T4 sequence (P21802 22-821): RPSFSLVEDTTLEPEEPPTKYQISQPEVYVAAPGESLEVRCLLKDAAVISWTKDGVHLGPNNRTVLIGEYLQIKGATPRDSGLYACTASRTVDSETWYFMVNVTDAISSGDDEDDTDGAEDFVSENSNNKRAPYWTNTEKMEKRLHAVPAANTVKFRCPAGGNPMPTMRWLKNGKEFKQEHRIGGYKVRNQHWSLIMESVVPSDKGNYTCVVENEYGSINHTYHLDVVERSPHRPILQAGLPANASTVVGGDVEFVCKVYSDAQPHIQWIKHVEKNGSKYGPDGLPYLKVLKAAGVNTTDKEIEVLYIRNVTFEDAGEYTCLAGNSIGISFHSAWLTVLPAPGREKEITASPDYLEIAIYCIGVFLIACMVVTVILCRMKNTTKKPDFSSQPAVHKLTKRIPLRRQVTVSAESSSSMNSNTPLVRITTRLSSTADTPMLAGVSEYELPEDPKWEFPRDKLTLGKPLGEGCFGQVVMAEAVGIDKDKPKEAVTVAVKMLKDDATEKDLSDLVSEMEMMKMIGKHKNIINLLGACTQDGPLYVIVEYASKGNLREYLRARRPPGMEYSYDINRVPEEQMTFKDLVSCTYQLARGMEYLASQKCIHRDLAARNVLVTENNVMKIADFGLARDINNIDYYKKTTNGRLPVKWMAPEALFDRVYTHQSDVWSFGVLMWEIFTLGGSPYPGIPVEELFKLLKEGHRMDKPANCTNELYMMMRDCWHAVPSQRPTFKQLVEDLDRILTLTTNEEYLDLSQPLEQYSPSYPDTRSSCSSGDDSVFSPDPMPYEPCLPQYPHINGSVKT
Method in brief: as §2

[9] = biological target: T5, FGFR3 (V555M) (Homo sapiens, UniProt P22607, V555M); assay: as above; conditions: V555M mutant; read-out: FGFR3 (V555M) (Kd nM)
T5 construct: made in house; host or cells: E. coli (BL21-derived), T7 phage
T5 sequence (P22607 23-806 V555M): as the sequence (P22607 23-806) above, with V533M counted along it
Method in brief: as §2

| Compound | IC50 [1] [nM] | IC50 [2] [nM] | IC50 [3] [nM] | IC50 [4] [nM] | Kd [5] [nM] | Kd [6] [nM] | Kd [7] [nM] | Kd [8] [nM] | Kd [9] [nM] |
| --- | --- | --- | --- | --- | --- | --- | --- | --- | --- |
| C[C@@H](O)CNC1(C)CN(c2ncc(-c3n[nH]c4ccc(O[C@H](C)c5c(Cl)cncc5Cl)cc34)cc2C#N)C1 [Example 56, 5-(5-((R)-1-(3,5-dichloropyridin-4-yl)ethoxy)-1H-indazol-3-yl)-2-(3-(((R)-2-hydroxypropyl)amino)-3-methylazetidin-1-yl)nicotinonitrile] | 0.1 to 50 | 200 to 1000 | 0.1 to 50 | 50 to 200 | 1 to 50 | 1 to 50 | 1 to 50 | 1 to 50 | 1 to 50 |
| COc1cc2[nH]nc(-c3cnc(N4CC(C)(NCC5CC5)C4)nc3)c2cc1O[C@H](C)c1c(Cl)cncc1Cl [Example 339, (R)-N-(cyclopropyl-methyl)-1-(5-(5-(1-(3,5-dichloropyridin-4-yl)ethoxy)-6-methoxy-1H-indazol-3-yl)pyrimidin-2-yl)-3-methylazetidin-3-amine] | 0.1 to 50 | 0.1 to 50 | 0.1 to 50 | 0.1 to 50 | 1 to 50 | 1 to 50 | 1 to 50 | 1 to 50 | 1 to 50 |
| C[C@@H](Oc1ccc2[nH]nc(-c3cnc(N4CC(C)(N5CCCC5)C4)c(C#N)c3)c2c1)c1c(Cl)cncc1Cl [Example 17, (R)-5-(5-(1-(3,5-Dichloropyridin-4-yl)ethoxy)-1H-indazol-3-yl)-2-(3-methyl-3-(pyrrolidin-1-yl)azetidin-1-yl)nicotinonitrile] | 0.1 to 50 | 200 to 1000 | 50 to 200 | 200 to 1000 | 1 to 50 | 1 to 50 | 1 to 50 | 1 to 50 | 1 to 50 |
| COc1cc2[nH]nc(-c3cnc(N4CC(C)(N)C4)c(C#N)c3)c2cc1O[C@H](C)c1c(Cl)cncc1Cl [Example 143, 2-(3-amino-3-methyl-azetidin-1-yl)-5-[5-[(1R)-1-(3,5-dichloro-4-pyridyl)ethoxy]-6-methoxy-1H-indazol-3-yl]pyridine-3-carbonitrile] | 0.1 to 50 | 50 to 200 | 0.1 to 50 | 50 to 200 | 1 to 50 | 1 to 50 | 1 to 50 | 1 to 50 | 1 to 50 |
| COc1cc2[nH]nc(-c3cnc(N4CC(C)(N(C)C)C4)c(C#N)c3)c2cc1O[C@H](C)c1c(Cl)cncc1Cl [Example 10, 5-[5-[(1R)-1-(3,5-dichloro-4-pyridyl)ethoxy]-6-methoxy-1H-indazol-3-yl]-2-[3-(dimethylamino)-3-methyl-azetidin-1-yl]pyridine-3-carbonitrile] | 0.1 to 50 | 50 to 200 | 0.1 to 50 | 50 to 200 | 1 to 50 | 1 to 50 | 1 to 50 | 1 to 50 | 1 to 50 |
| C[C@@H](Oc1ccc2[nH]nc(-c3cnc(N4CC(C)(N[C@H]5CCOC5)C4)c(C#N)c3)c2c1)c1c(Cl)cncc1Cl [Example 20, 5-(5-((R)-1-(3,5-dichloropyridin-4-yl)ethoxy)-1H-indazol-3-yl)-2-(3-methyl-3-(((S)-tetrahydrofuran-3-yl)amino)azetidin-1-yl)nicotinonitrile] | 0.1 to 50 | 200 to 1000 | 50 to 200 | 50 to 200 | 1 to 50 | 1 to 50 | 1 to 50 | 1 to 50 | 1 to 50 |
| C[C@@H](Oc1ccc2[nH]nc(-c3cnc(N4CC(C)(N(C)C)C4)nc3)c2c1)c1c(Cl)cncc1Cl [Example 44, (R)-1-(5-(5-(1-(3,5-dichloropyridin-4-yl)ethoxy)-1H-indazol-3-yl)pyrimidin-2-yl)-N,N,3-trimethylazetidin-3-amine] | 0.1 to 50 | 50 to 200 | 0.1 to 50 | 50 to 200 | 1 to 50 | 1 to 50 | 1 to 50 | 1 to 50 | 1 to 50 |
| COc1cc2[nH]nc(-c3cnc(N4CC(C)(N5CCCC5)C4)c(C#N)c3)c2cc1O[C@H](C)c1c(Cl)cncc1Cl [Example 15, 5-[5-[(1R)-1-(3,5-dichloro-4-pyridyl)ethoxy]-6-methoxy-1H-indazol-3-yl]-2-(3-methyl-3-pyrrolidin-1-yl-azetidin-1-yl)pyridine-3-carbonitrile] | 0.1 to 50 | 50 to 200 | 0.1 to 50 | 50 to 200 | 1 to 50 | 1 to 50 | 1 to 50 | 1 to 50 | 1 to 50 |
| CC(C)OCCNC1(C)CN(c2ncc(-c3n[nH]c4ccc(O[C@H](C)c5c(Cl)cncc5Cl)cc34)cc2C#N)C1 [Example 98, (R)-5-(5-(1-(3,5-dichloropyridin-4-yl)ethoxy)-1H-indazol-3-yl)-2-(3-((2-isopropoxyethyl)amino)-3-methylazetidin-1-yl)nicotinonitrile] | 50 to 200 | 200 to 1000 | 50 to 200 | 200 to 1000 | 50 to 300 | 1 to 50 | 1 to 50 | 50 to 300 | 1 to 50 |
| COc1cc2[nH]nc(-c3cnc(N4CC(C)(C)C4)nc3)c2cc1O[C@H](C)c1c(Cl)cncc1Cl [Example 61, 5-[(1R)-1-(3,5-dichloro-4-pyridyl)ethoxy]-3-[2-(3,3-dimethylazetidin-1-yl)pyrimidin-5-yl]-6-methoxy-1H-indazole] | 0.1 to 50 | 50 to 200 | 0.1 to 50 | 50 to 200 | 1 to 50 | 1 to 50 | 1 to 50 | 1 to 50 | 1 to 50 |
| COCCNC1(C)CN(c2ncc(-c3n[nH]c4ccc(O[C@H](C)c5c(Cl)cncc5Cl)cc34)cc2C#N)C1 [Example 88, (R)-5-(5-(1-(3,5-dichloropyridin-4-yl)ethoxy)-1H-indazol-3-yl)-2-(3-((2-methoxyethyl)amino)-3-methylazetidin-1-yl)nicotinonitrile] | 0.1 to 50 | 200 to 1000 | 50 to 200 | 50 to 200 | 1 to 50 | 1 to 50 | 1 to 50 | 50 to 300 | 1 to 50 |
| C[C@@H](Oc1ccc2[nH]nc(-c3cnc(N4CC(C)(CN(C)S(C)(=O)=O)C4)c(C#N)c3)c2c1)c1c(Cl)cncc1Cl [Example 23, (R)-N-((1-(3-cyano-5-(5-(1-(3,5-dichloropyridin-4-yl)ethoxy)-1H-indazol-3-yl)pyridin-2-yl)-3-methylazetidin-3-yl)methyl)-N-methylmethanesulfona-mide] | 0.1 to 50 | 200 to 1000 | 50 to 200 | 200 to 1000 | 1 to 50 | 1 to 50 | 1 to 50 | 1 to 50 | 1 to 50 |
| C=CCNC1(C)CN(c2ncc(-c3n[nH]c4cc(OC)c(O[C@H](C)c5c(Cl)cncc5Cl)cc34)cc2C#N)C1 [Example 147, (R)-2-(3-(allylamino)-3-methylazetidin-1-yl)-5-(5-(1-(3,5-dichloropyridin-4-yl)ethoxy)-6-methoxy-1H-indazol-3-yl)nicotinonitrile] | 0.1 to 50 | 50 to 200 | 0.1 to 50 | 50 to 200 | 1 to 50 | 1 to 50 | 1 to 50 | 1 to 50 | 1 to 50 |
